Assay results as given in US6867186B2, “Cell-permeable protein inhibitors of calpain” (New England Medical Center Hospital, priority 1997, dated 2005).
“Also recorded” adds a separate entry of the source. Where two headings read alike, the source gives them in different places.

Experiments:
μ-calpain = target: T1, μ-calpain (Sus scrofa, UniProt P35750); experiment: Fluorometric calpain assay, suc-LLVY-AMC substrate; format: biochemical, porcine
T1 construct: pure p-calpain (porcine erythrocyte) was obtained from Chemicon; purchased Chemicon; host or cells: porcine erythrocyte
T1 sequence (P35750 1-714): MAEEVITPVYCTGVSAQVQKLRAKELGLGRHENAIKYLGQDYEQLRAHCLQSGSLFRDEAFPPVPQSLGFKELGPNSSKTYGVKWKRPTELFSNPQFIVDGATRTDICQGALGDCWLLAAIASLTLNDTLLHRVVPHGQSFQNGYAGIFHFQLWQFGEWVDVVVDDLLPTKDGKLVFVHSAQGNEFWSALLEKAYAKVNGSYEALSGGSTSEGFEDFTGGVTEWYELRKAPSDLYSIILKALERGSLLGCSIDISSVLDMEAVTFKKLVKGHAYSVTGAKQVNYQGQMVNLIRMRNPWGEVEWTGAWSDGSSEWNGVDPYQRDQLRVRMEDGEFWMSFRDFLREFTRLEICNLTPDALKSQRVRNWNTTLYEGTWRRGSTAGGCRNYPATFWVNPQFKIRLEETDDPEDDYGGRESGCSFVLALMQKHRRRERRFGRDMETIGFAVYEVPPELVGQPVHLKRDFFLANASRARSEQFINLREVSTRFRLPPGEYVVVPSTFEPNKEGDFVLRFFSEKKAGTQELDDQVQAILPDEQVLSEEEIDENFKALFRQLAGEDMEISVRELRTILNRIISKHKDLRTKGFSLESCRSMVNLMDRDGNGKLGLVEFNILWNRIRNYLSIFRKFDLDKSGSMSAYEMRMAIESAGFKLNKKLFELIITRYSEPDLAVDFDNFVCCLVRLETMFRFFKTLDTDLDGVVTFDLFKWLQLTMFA
T1 sequence (P04574 1-266 partner): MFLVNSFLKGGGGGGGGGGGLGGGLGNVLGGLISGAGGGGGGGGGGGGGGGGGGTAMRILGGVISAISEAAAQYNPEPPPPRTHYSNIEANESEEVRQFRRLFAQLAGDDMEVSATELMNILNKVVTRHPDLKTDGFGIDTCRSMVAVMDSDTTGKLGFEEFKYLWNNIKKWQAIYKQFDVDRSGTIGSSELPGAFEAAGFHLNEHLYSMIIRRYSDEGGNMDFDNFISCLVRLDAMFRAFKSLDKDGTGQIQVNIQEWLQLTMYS
Text: Unless otherwise noted, the materials used in the studies described below were obtained from commercial suppliers. Sepharose 2B was obtained from Pharmacia Biotech (Upsala, Sweden); pure p-calpain (porcine erythrocyte) was obtained from Chemicon; succinyl-LLVY-AMC (SEQ ID NO:7) was obtained from Bachem; A23187 was obtained from LC Labs; human alpha-thrombin was obtained from Hematologic Technologies (Essex Junction, VT); anti-P-selectin antibodies conjugated to phycoerythrin were obtained from Becton Dickinson (San Jose, Calif.); Oregon Green-phalloidin was obtained from Molecular Probes (Eugene, Oreg.). All other chemicals were ACS grade or better and were obtained from Sigma Chemical Company (St. Louis, Mo.).
To assess the ability of calpastat to inhibit calpain activity, a fluorometric calpain assay was performed. The assay determined specific peptidyl hydrolysis of the peptidyl 7-amino bond of suc-LLVY-AMC (SEQ ID NO:7) by calpain.
The assay was performed in a 0.5 ml reaction volume at 37° C. The reaction buffer contained 50 mM KC1, 10 mM Tris-HCl (pH 7.5), 1 mM EDTA, and 1 mM DTT. Two hundred μM suc-LLVY-AMC (SEQ ID NO:7) was added along with 5 mM CaCl2. Calpastat or S-TIPPEY-ala was then added at the given concentrations (FIG. 9). […] The initial rate of AMC production was measured by fluorimetry for the first few minutes. […]

gel filtered platelets = experiment: Thrombin-induced platelet aggregation (aggregometer); format: cell-based, human; details: for effect on platelet aggregation: thrombin or SFLLR induced
Method: In one series of experiments, platelets were purified from […] on a SEPHAROSE 2B column in PIPES buffered saline containing glucose, pre-incubated with 45 μM calpastat or S-TIPPEY-ala for 30 minutes at 37° C., and placed in a cuvette in a BIODATA aggregometer. The aggregometer measures turbidity of the solution by nephlometry (light scatter). Aggregation was induced with thrombin (0.1 to 1 unit/ml) or the thrombin receptor agonist peptide SFLLR (SEQ ID NO:5). […] In contrast, S-TIPPEY-ala had no activity. A version of S-TIPPEYIN lacking the signal sequence similarly had no activity.
In another series of experiments, gel filtered platelets were obtained and tested as follows. Blood from healthy, aspirin-free volunteers was collected by venipuncture into 4% sodium citrate (9:1 v/v, final concentration 0.4%) and centrifuged at 200×g for 20 minutes to obtain platelet rich plasma (PRP). Following incubation with apyrase (4 units/ml for 5 minutes at room temperature), platelets were purified from PRP by gel-filtration at room temperature using a Sepharose 2B column equilibrated in PIPES buffer (25 mM PIPES pH 6.8, 140 mM NaCl, 4 mM KCl, and 0.1% glucose) (Hsu-Lin, et al., J. Biol. Chem. 259:9121-9126, 1984). Final gel filtered platelet concentrations were about 1.5×10^8 cells/ml.
Gel filtered platelets (250 μl aliquots at 1.6×10^8/ml) were incubated with the indicated concentration of calpastat or mutant calpastat-ala for either 20 or 30 minutes at 37° C. in the absence of calcium and stirring. To test peptidyl calpain inhibitors, platelets were preincubated with the indicated concentration of calpeptin, MDL, E64d, DMSO (vehicle control) or NH4Cl (cathepsin control) for 10 minutes at 37° C. Following incubation, platelets were recalcified (CaCl2, 2 mM) and stimulated with 0.05-1.0 unit/ml thrombin, while being stirred (1400 rpm) at 37° C. The sensitivity of platelet preparations to thrombin decreased over the course of a given experiment. The thrombin concentration used was to elicit robust aggregation and varied between 0.05 and 1.0 U/ml. Aggregation was measured using a Bio-Data lumi-aggregometer. Percent inhibition of aggregation was measured at 4 minutes following the onset of aggregation. The initial rate of aggregation during the first 15 seconds for treated vs. untreated samples was used to calculate the IC50 for each inhibitor.

platelets = experiment: cells; format: cell-based; parameters: reduction in spreading on the glass surface: dose or concentration left out as unconfirmed
Method: Platelet activation on surfaces can be inhibited by […] or […] fusion proteins. […] The cellular area of spread platelets was determined by computer assisted image analysis using NIH Image 1.61. […] Percent inhibition of spreading was calculated from the increase in mean cell area for untreated and treated samples vs. unspread DMSO controls.

Substance | inhibition of purified μ-calpain (μ-calpain; up to 10 μM, listed as S-TIPPEY-ala) | IC50 (gel filtered platelets; initial rate during first 15 seconds, NI=no inhibition, peptidyl inhibitors 10 min pre-incubation, read-out: IC50, initial rate of thrombin-induced platelet aggregation) | effect on platelet aggregation (gel filtered platelets) | effect on platelet aggregation (gel filtered platelets; listed as S-TIPPEY-ala) | effect on platelet spreading (platelets; spreading on glass) | IC50 (platelets; spreading on glass, NI=no inhibition, read-out: IC50, inhibition of platelet spreading) | IC50 (μ-calpain; 70 nM enzyme, 37° C., read-out: IC50, μ-calpain cleavage of suc-LLVY-AMC) | concentration of maximal inhibition of platelet aggregation (gel filtered platelets; 30 minutes pre-incubation at 37° C.) | IC50 (gel filtered platelets; no unit printed, read-out: IC50 of calpastat, initial rate of thrombin-induced aggregation) | IC50 (platelets) | inhibition of platelet spreading relative to calpastat-ala control (platelets; 100 μM, 30 minutes pre-incubation) | inhibition of platelet spreading relative to calpastat-ala control (platelets; 100 μM, 60 minutes pre-incubation) | platelets round and unspread on glass (platelets; 100 μM, 1.5 hours) | inhibition of platelet spreading relative to calpastat-ala control (platelets; 100 μM, 90 minutes pre-incubation) | reduction in spreading on the glass surface (platelets; 90 minutes at 37° C.)
AAVALLPAVLLALLAPEKLAERADAAAPEAAELLEKKTGV [Calpastat-ala] | no inhibitory activity; also recorded: no inhibition | > 50 µM | no measurable effect | no activity | minimal inhibition | > 100 µM | – | – | – | – | – | – | – | – | –
H-AAVALLPAVLLALLAPEKLGERDDTIPPEYRELLEKKTGV-OH [Calpastat] | – | – | inhibited platelet aggregation and secretion | – | – | – | 0.05 µM | 45 µM | 50 µM | 35 µM | 0% | 46% | Half | 80% | 70%
